From US9061054B2, “ErbB-2 receptor targeting peptide” (The Curators of The University of Missouri, priority 2002, dated 2015)
Numbered stars: 1 amine (or outer) side, 2 acyl side, 3 side chain; on linkers, the order of the positions; unused ones are H or OH. Bridge positions count the residues as written; N and C are the ends. Square brackets hold non-standard residues; d marks the D form. Ends that are not written are not given here. Peptide text beside a SMILES is read from it. I, II: the chains in the order shown. Actinocin(9to1) = Cc1c2oc3c(C)ccc(C(=O)[*:1])c3nc-2c(C(=O)[*:2])c(N)c1=O; NMeV = CN[C@H](C(=O)O)C(C)C; Sar = CNCC(=O)O

Key:
[1] = in vivo; cited from earlier work
[2] = cited from earlier work
[3] = oral radioactive lomustine, about 30 mg/m^2 to 100 mg/m^2; cited from earlier work
multiple myeloma = conditions: oral administration; cited from earlier work
[4] = cited from earlier work; for plasma protein binding: in vivo
soluble ErbB-2-ECD = target: T1, soluble ErbB-2-ECD (Homo sapiens, UniProt P04626); experiment: Fluorescence quenching titration of ErbB-2-ECD; type: binding; conditions: saturation conditions; excited at 300 nm, monitored at 350 nm
T1 construct: Purification and characterization of the recombinant extracellular domain of ErbB-2; made in house
Description: Fluorescence assay. The fluorescence titration studies were carved out using a SLM Aminco spectrofluorometer interfaced to a DEL 433/L PC running SLM Aminco 8100 series 2 software. The titrations were performed at 25° C. with varying amounts of peptide added to a fixed ErbB-2-ECD concentration (200-600 nM) in 2 ml of phosphate buffered saline (pH=7.4). Each measurement was collected for 5-20 sec after 1-2 min pre-equilibration. The excitation shutter remained closed during pre-equilibration of the sample and was opened only during data acquisition in order to minimize photobleaching of the sample. The fluorescence measurements were corrected for dilutions and photobleaching of ErbB-2-ECD. Values reported are an average of three independent measurements. […]
Fluorescence quenching studies were performed in order to evaluate the equilibrium dissociation constant of p6.1 to the soluble Erb-2-ECD. Intrinsic tryptophan fluorescence of the protein was monitored as a function of peptide concentration. Since p6.1 peptide contains a tyrosine residue, samples were excited at 300 nm and monitored at 350 nm to minimize the influence of tyrosine emission on tryptophan fluorescence. […] Theoretical curves were generated for the percentage of fluorescence quenching as a function of total peptide concentration (FIG. 2C).

ErbB-2-ECD [5] = target: T2, ErbB-2-ECD (Homo sapiens, UniProt P04626); experiment: Affinity selection of phage display library; type: binding; design: Purification and characterization of the recombinant extracellular domain of ErbB-2; made in house; conditions: 100 clones sequenced after four rounds of affinity selection; F3-6 library
Description: Affinity Selection. […] Biotinylated antigen was incubated with streptavidin coated plates for 2 hours at 4° C. In first and second round of selection 10 μg of biotinylated antigen per plate was added, in third round amount of antigen was decreased to 1 μg, and for fourth round of selection 0.1 μg of antigen was used. Unoccupied biotin-binding sites were blocked with 0.1 mM biotin. Phage was incubated with antigen for 4 hrs at RT. Plates were washed 10 times with TPBS to remove unbound phage. Bound phage was eluted with elution buffer (0.1 M HCl, pH is adjusted to 2.2 with glycine, 1 mg/ml BSA, 0.1 mg/ml phenol red) at RT during 10 min. […] After each round, except the last, the eluate of the bound phage was propagated and used as input for the next round. Individual clones were characterized by DNA sequencing after the fourth round of selection.
A random 6-amino acid peptide bacteriophage display library was affinity selected against the ErbB-2-ECD to identify novel peptide-ligands.

[6] = tested on: BSA, bovine asialofetuin, and human IgG; experiment: Immunoblot analysis, control proteins; type: binding; conditions: 6.25-50 ng on nitrocellulose, biotinylated peptide
Excerpt: Binding activity of p6.1 peptide.

ErbB-2-ECD [7] = target: T2, ErbB-2-ECD; experiment: ELISA, immobilized ErbB-2-ECD
Description: ELISA. […] Wells were subsequently incubated with biotinylated peptide added to the wells by serial dilutions (1:2) at RT for 2 hr. […] The pNPP reaction was stopped with 3M NaOH. Optical density was measured at 405 nm in a microplate reader. All assays were performed at least three times in triplicate wells. Values are reported as an average of absorbence ±SD.

[8] = target: T3, ErbB-1 receptor from human carcinoma A431 cells (Homo sapiens, UniProt P00533); experiment: ELISA, immobilized ErbB-1; type: binding; conditions: 100 ng protein per well; biotinylated peptide in 1:2 serial dilutions; OD 405 nm
T3 construct: ErbB-1 receptor from human carcinoma A431 cells; purchased Sigma #E-2645; host or cells: A431 human carcinoma cells (endogenous receptor, isolated by the vendor)

ErbB-2-ECD [9] = target: T2, ErbB-2-ECD; conditions: 6.25-50 ng protein on nitrocellulose; biotinylated peptide, 2 hrs RT
Description: Immunoblot analysis of binding activity of the p6.1 peptide. […] After washing three times with PBS, the membrane was incubated with 100 μg biotinylated peptide for 2 hrs at RT.
Binding activity of p6.1 peptide. The binding specificity of synthetic p6.1 peptide to recombinant ErbB-2-ECD was examined by immunoblot and ELISA procedures. Immunoblot analysis was performed to compare the binding activity of the p6.1 peptide to ErbB-2-ECD and several other non-ErbB-2 related proteins. Purified recombinant ErbB-2-ECD as well as BSA, bovine asialofetuin, and human IgG were spotted on a nitrocellulose membrane at various amounts and exposed to the biotinylated p6.1 peptide.

[10] = tested on: T-24 human bladder carcinoma cells; experiment: Direct cell binding assay, T-24 (negative control); type: cell-based; conditions: biotinylated peptide 100 μM, antibody 1:100
Description: (§1) Cell Binding Assay. DU-145 (human prostate adenocarcinoma), MDA-MB-435 (human breast carcinoma), and T-24 (human bladder carcinoma) cells were grown directly on the same microscope slide using a 4 well Lab-Tek II chamber slide system (Nalge Nunc). When cultures reached approximately 60-70% confluence, the cells were briefly washed with PBS, fixed with 4% formaldehyde solution in PBS for 30 min but not permeabilized, and preblocked for 1 hr with 2% bovine serum albumin (BSA) solution in PBS at 37° C. The cultivation chambers were removed and cells were incubated for 2 hr with solution of Neu (9G6) anti-ErbB-2 mouse monoclonal antibody (Santa Cruz Biotechnology) diluted 1:100 and biotinylated peptide (100 μM) in 2% solution BSA in PBS. The slides were washed three times with PBS followed by 1 hr incubation with Lissamine Rhodamineconjugated donkey anti-mouse IgG (Jackson ImmunoResearch Laboratories) and streptavidin-AMCA-S conjugate (Molecular Probes) in 2% BSA in PBS. After additional washes with PBS, the slides were mounted and analyzed by fluorescent microscopy using Rhodamine and UVA filter sets.
Direct Cell Binding Assay. The ability of the p6.1 to recognize cultured human cancer cells expressing native conformation of the ErbB-2 was examined. High levels of ErbB-2 expression on DU-145 human prostate carcinoma cells has been reported previously (Zhau et al., 1992). […]

[11] = tested on: MDA-MB-435 human breast carcinoma cells; experiment: Direct cell binding assay, MDA-MB-435; type: cell-based; conditions: fixed, non-permeabilized cells; biotinylated peptide 100 μM; antibody 1:100
Description: as §1, with “DU-145 (human prostate adenocarcinoma), MDA-MB-435 (human breast carcinoma), and T-24 (human bladder carcinoma) cells were grown directly on the same microscope slide using a 4 well Lab-Tek II chamber slide system (Nalge Nunc).” left out
(§2) Direct Cell Binding Assay. The ability of the p6.1 to recognize cultured human cancer cells expressing native conformation of the ErbB-2 was examined.

[12] = tested on: DU-145 human prostate carcinoma cells; experiment: Direct cell binding assay, DU-145; type: cell-based; conditions: fixed, non-permeabilized cells; biotinylated peptide 100 μM; antibody 1:100
Description: as §1, with “DU-145 (human prostate adenocarcinoma), MDA-MB-435 (human breast carcinoma), and T-24 (human bladder carcinoma) cells were grown directly on the same microscope slide using a 4 well Lab-Tek II chamber slide system (Nalge Nunc).” left out
as §2

## Cc1c2oc3c(C)ccc(C(=O)N[C@@H]4C(=O)N[C@H](C(C)C)C(=O)N5CCC[C@H]5C(=O)N(C)CC(=O)N(C)[C@@H](C(C)C)C(=O)O[C@@H]4C)c3nc-2c(C(=O)N[C@@H]2C(=O)N[C@H](C(C)C)C(=O)N3CCC[C@H]3C(=O)N(C)CC(=O)N(C)[C@@H](C(C)C)C(=O)O[C@@H]2C)c(N)c1=O [Actinomycin D] (I: T[dV]P[Sar][NMeV] / II: T[dV]P[Sar][NMeV]; ester I:1-I:C, II:1-II:C; linker I:N-II:N via Actinocin(9to1))
[1]
  passage of the blood-brain barrier: does not pass

## O=NN(CCCl)C(=O)NCCCl [Carmustine, 1,3 bis(2-chloroethyl)-1-nitrosourea]
[2]
  solubility in water: poorly soluble

## O=NN(CCCl)C(=O)NC1CCCCC1 [Lomustine, 1-(2-chloro-ethyl)-3-cyclohexyl-1 nitrosourea]
[3]
  radioactivity excreted as degradation products within 24 hours: about half

## N[C@@H](Cc1ccc(N(CCCl)CCCl)cc1)C(=O)O [Melphalan]
Multiple myeloma
  patients with multiple myeloma showing a favorable response: one third to one half

## CC[C@]1(O)C[C@@H]2CN(CCc3c([nH]c4ccccc34)[C@@](C(=O)OC)(c3cc4c(cc3OC)N(C)[C@H]3[C@@](O)(C(=O)OC)[C@H](OC(C)=O)[C@]5(CC)C=CCN6CC[C@]43[C@@H]65)C2)C1 [vinblastine]
[4]
  plasma protein binding: bind to plasma proteins
  absorption after oral administration: Unpredictable absorption

## CC[C@]1(O)C[C@H]2CN(CCc3c([nH]c4ccccc34)[C@@](C(=O)OC)(c3cc4c(cc3OC)N(C=O)[C@H]3[C@@](O)(C(=O)OC)[C@H](OC(C)=O)[C@]5(CC)C=CCN6CC[C@]43[C@@H]65)C2)C1 [vincristine]
[4]
  plasma protein binding: bind to plasma proteins
  absorption after oral administration: Unpredictable absorption

## KCCYSL [p6.1]
Soluble ErbB-2-ECD
  maximum quenching of tryptophanyl fluorescence: 20%
ErbB-2-ECD [5]
  % Of Clones: 75%
[6]
  reaction with control proteins (immunoblot): did not react
ErbB-2-ECD [7]; 100 ng protein per well, biotinylated peptide in 1:2 serial dilutions, OD 405 nm
  binding activity to ErbB-2-ECD (ELISA): significant dose dependent binding activity
ErbB-2-ECD [7]; experimental ELISA data
  competition with Neu (9G6) antibody for the same binding site on the extracellular domain: do not compete
[8]
  binding activity to ErbB-1 protein (ELISA): significant dose dependent binding activity
ErbB-2-ECD [9]
  binding to immobilized ErbB-2-ECD (immunoblot): bound only ErbB-2

## WYAWML [p6.2]
ErbB-2-ECD [5]
  % Of Clones: 8%

## WYSWLL [p6.3]
ErbB-2-ECD [5]
  % Of Clones: 10%

## biotinylated p6.1: biotinylated analog of the p6.1 peptide KCCYSL, chemically synthesized (cysteine pairing not given here; also: biotinylated, place not given here)
[10]
  binding to T-24 cells (fluorescent microscopy): Neither the Neu (9G6) anti-ErbB-2 antibody, nor the biotinylated p6.1 bound
[11]
  binding to MDA-MB-435 cells (fluorescent microscopy): bound
[12]
  binding to DU-145 cells (fluorescent microscopy): bound
